Source: US20020022619A1, “Tricyclic fused pyridine and pyrimidine derivatives as CRF antagonists” (priority 2000, published 2002)

Experiments:
[1] = test system: “anxiogenic” effects of CRF; conditions: cited from earlier work; for effect on the “anxiogenic” effects / actions of CRF in the conflict test: rats, given with CRF

| SMILES | melting point | behavioral activity alone in the operant conflict test ([1]; compound alone, without CRF) | effect on the “anxiogenic” effects / actions of CRF in the conflict test [1] |
| --- | --- | --- | --- |
| CCN1CCCn2c(=O)n(-c3ccc(C(C)C)cc3Br)c3nc(C)nc1c32 [Example 1, 2-(2-Bromo-4-isopropyl-phenyl)-6-ethyl-4-methyl-6,7,8,9-tetrahydro-2H-2,3,5,6,9a-pentaaza-benzo[cd]azulen-1-one] | 144.5 to 146 °C | – | – |
| CCOC(=O)c1ncn2c1CN(C)C(=O)c1cc(F)ccc1-2 [Ro15-1788] | – | without behavioral activity alone | reversed the effects of CRF in a dose-dependent manner |
| CNC(=O)c1cc2c(cn1)[nH]c1ccccc12 [FG7142] | – | – | enhanced the actions of CRF |
